According to US20250257051A1, “SUBSTITUTED PYRIMIDINE COMPOUNDS AS TYK2 INHIBITORS” (1910 Genetics Inc., priority 2022, published 2025):
Where “and” joins values, the source holds several entries; their conditions need not be identical. Identical values can stand only once. Counter-ions that a name gives are not always drawn.

The molecules below were run against human TYK2 (JH2domain-pseudokinase) (Homo sapiens (Human), UniProt P29597) (assay: TYK2 JH2 Domain Binding Assay (KINOMEscan competition binding)). Conditions: KINOMEscan; 11-point 3-fold dilution, top concentration 30,000 nM; Kd measurements in duplicate; read-out: TYK JH2 (Kd).
Sequence of human TYK2 (JH2domain-pseudokinase) (P29597 556-888): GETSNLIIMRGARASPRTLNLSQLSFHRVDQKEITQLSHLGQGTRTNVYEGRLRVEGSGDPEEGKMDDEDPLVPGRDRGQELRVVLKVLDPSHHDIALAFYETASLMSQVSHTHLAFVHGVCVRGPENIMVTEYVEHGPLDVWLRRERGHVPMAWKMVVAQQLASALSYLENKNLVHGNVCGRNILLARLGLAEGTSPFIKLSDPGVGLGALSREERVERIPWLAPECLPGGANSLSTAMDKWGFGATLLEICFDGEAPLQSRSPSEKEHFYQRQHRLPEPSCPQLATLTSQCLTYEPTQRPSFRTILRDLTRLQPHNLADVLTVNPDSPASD
Protocol: Binding constants for compounds disclosed herein may be determined by the KINOMEscan® assay developed by DiscoveRx. KINOMEscan® is based on a competition binding assay that quantitatively measures the ability of a compound to compete with an immobilized, active-site directed ligand. The assay is performed by combining three components: DNA-tagged kinase; immobilized ligand; and a test compound. The ability of the test compound to compete with the immobilized ligand is measure via quantitative PCR of the DNA tag.
Binding constants for compounds disclosed herein against the JH2 domain are determined by the following protocol for a KINOMEscan® assay (DiscoveRx). A fusion protein of a partial length construct of human TYK2 (JH2domain-pseudokinase) (amino acids G556 to D888 based on reference sequence NP 003322.3) and the DNA binding domain of NFkB is expressed in transiently transfected HEK293 cells. From these HEK 293 cells, extracts are prepared in M-PER extraction buffer (Pierce) in the presence of Protease Inhibitor Cocktail Complete (Roche) and Phosphatase Inhibitor Cocktail Set II (Merck) per manufacturers' instructions. The TYK2 (JH2domain-pseudokinase) fusion protein is labeled with a chimeric double-stranded DNA tag containing the NFkB binding site (5′-GGGAATTCCC-3′) fused to an amplicon for qPCR readout, which is added directly to the expression extract (the final concentration of DNA-tag in the binding reaction is 0.1 nM).
Streptavidin-coated magnetic beads (Dynal M280) are treated with a biotinylated small molecule ligand for 30 minutes at room temperature to generate affinity resins for the binding assays. The liganded beads are blocked with excess biotin and washed with blocking buffer (SeaBlock (Pierce), 1% BSA, 0.05% Tween 20, 1 mM DTT) to remove unbound ligand and to reduce nonspecific binding.
Extracts are used directly in binding assays without any enzyme purification steps at a >10,000-fold overall stock dilution (final DNA tagged enzyme concentration<0.1 nM). Extracts are loaded with DNA-tag and diluted into the binding reaction in a two-step process. First extracts are diluted 1:100 in 1× binding buffer (PBS/0.05% Tween 20/10 mM DTT/0.1% BSA/[…] sonicated salmon sperm DNA) containing 10 nM DNA-tag. This dilution is allowed to equilibrate at room temperature for 15 minutes and then subsequently diluted 1:100 in 1× binding buffer. Test compounds are prepared as 111× stocks in 100% DMSO. Kds are determined using an 11-point 3-fold compound dilution series with three DMSO control points. All compounds for Kd measurements are distributed by acoustic transfer (non-contact dispensing) in 100% DMSO. The compounds are then diluted directly into the assays such that the final concentration of DMSO is 0.9%. All reactions performed in polypropylene 384-well plates. Each is a final volume of 0.02 mL. Assays are incubated with shaking for 1 hour at room temperature. Then the beads are pelleted and washed with wash buffer (lx PBS, 0.05% Tween 20) to remove displaced kinase and test compound. The washed beads are re-suspended in elution buffer (lx PBS, 0.05% Tween 20, 0.5 μM non-biotinylated affinity ligand) and incubated at room temperature with shaking for 30 minutes. The kinase concentration in the eluates is measured by qPCR. qPCR reactions are assembled by adding 2.5 μL of kinase eluate to 7.5 μL of qPCR master mix containing 0.15 μM amplicon primers and 0.15 μM amplicon probe. The qPCR protocol consists of a 10-minute hot start at 95° C., followed by 35 cycles of 95° C. for 15 seconds, 60° C. for 1 minute.
Test compounds are prepared as 111× stocks in 100% DMSO. Kds are determined using an 11-point 3-fold compound dilution series with three DMSO control points. All compounds for Kd measurements are distributed by acoustic transfer (non-contact dispensing) in 100% DMSO. The compounds are then diluted directly into the assays such that the final concentration of DMSO is 0.9%. […]
In the case of CC1CN(C(=O)OC(C)(C)C)CCN1c1ncc(C(N)=O)c(Nc2ccccc2S(C)(=O)=O)n1 (racemic) [Compound 55, Tert-Butyl 4-(5-carbamoyl-4-((2-(methylsulfonyl)phenyl)amino)pyrimidin-2-yl)-3-methylpiperazine-1-carboxylate], the Kd is reported as 180 nM.
CC(=O)N1CCN(c2ncc(C(N)=O)c(Nc3ccccc3S(C)(=O)=O)n2)C(C)C1 (racemic) [Compound 62, 2-(4-acetyl-2-methylpiperazin-1-yl)-4-((2-(methylsulfonyl)phenyl)amino)pyrimidine-5-carboxamide] gave a Kd of 120 nM.
In the case of CC1CNCCN1c1ncc(C(N)=O)c(Nc2ccccc2S(C)(=O)=O)n1 (racemic) [Compound 63, 2-(2-methylpiperazin-1-yl)-4-((2-(methylsulfonyl)phenyl)amino)pyrimidine-5-carboxamide hydrochloride], the Kd is reported as 1400 nM.
In the case of CNC(=O)c1cnc(N2CCC(C(=O)NC)C2)nc1Nc1ccc(C2CC2)nc1 (stereo not drawn) [Compound 1, 4-((6-cyclopropylpyridin-3-yl)amino)-N-methyl-2-(3-(methylcarbamoyl)pyrrolidin-1-yl)pyrimidine-5-carboxamide], the Kd is reported as 170 nM.
In the case of NC(=O)c1cnc(N2CCCC2)nc1Nc1ccc(C2CC2)nc1 [Compound 2, 4-((6-cyclopropylpyridin-3-yl)amino)-2-(pyrrolidin-1-yl)pyrimidine-5-carboxamide], the Kd is reported as 12 nM.
In the case of CNC(=O)[C@H]1CCN(c2ncc(C(N)=O)c(Nc3ccc(C4CC4)nc3)n2)C1 [Compound 3, (S)-4-((6-cyclopropylpyridin-3-yl)amino)-2-(3-(methylcarbamoyl)pyrrolidin-1-yl)pyrimidine-5-carboxamide], the Kd is reported as 54 nM.
In the case of CNC(=O)[C@@H]1CCN(c2ncc(C(N)=O)c(Nc3ccc(C4CC4)nc3)n2)C1 [Compound 4, (R)-4-((6-cyclopropylpyridin-3-yl)amino)-2-(3-(methylcarbamoyl)pyrrolidin-1-yl)pyrimidine-5-carboxamide], the Kd is reported as 38 nM.
With CNC(=O)c1cnc(N2CC[C@@H](C(=O)NC)C2)nc1Nc1cccc(-c2ncc(F)cn2)c1OC [Compound 5, (R)-4-((3-(5-fluoropyrimidin-2-yl)-2-methoxyphenyl)amino)-N-methyl-2-(3-(methylcarbamoyl)pyrrolidin-1-yl)pyrimidine-5-carboxamide] the Kd was 0.69 nM.
CNC(=O)c1cnc(N2CC[C@H](C(=O)NC)C2)nc1Nc1ccc(C2CC2)nc1 [Compound 6, (S)-4-((6-cyclopropylpyridin-3-yl)amino)-N-methyl-2-(3-(methylcarbamoyl)pyrrolidin-1-yl)pyrimidine-5-carboxamide] showed a Kd of 430 nM.
CNC(=O)c1cnc(N2CC[C@H](C(=O)NC)C2)nc1Nc1cccc(-c2ncc(F)cn2)c1OC [Compound 7, (S)-4-((3-(5-fluoropyrimidin-2-yl)-2-methoxyphenyl)amino)-N-methyl-2-(3-(methylcarbamoyl)pyrrolidin-1-yl)pyrimidine-5-carboxamide] gave a Kd of 3.9 nM.
CNC(=O)c1cnc(N2CCCC2)nc1Nc1ccc(C(=O)N2CCOCC2)cc1 [Compound 8, N-methyl-4-((4-(morpholine-4-carbonyl)phenyl)amino)-2-(pyrrolidin-1-yl)pyrimidine-5-carboxamide] was tested, and the Kd was 360 nM.
Molecule CNC(=O)c1cnc(N2CC[C@@H](C(=O)NC)C2)nc1Nc1ccc(C2CC2)nc1 [Compound 9, (R)-4-((6-cyclopropylpyridin-3-yl)amino)-N-methyl-2-(3-(methylcarbamoyl)pyrrolidin-1-yl)pyrimidine-5-carboxamide] has a Kd of 240 nM.
CC(=O)N1CCN(c2ncc(C(N)=O)c(Nc3ccc(C4CC4)nc3)n2)C(C)C1 (stereo not drawn) [Compound 11, 2-(4-acetyl-2-methylpiperazin-1-yl)-4-((6-cyclopropylpyridin-3-yl)amino)pyrimidine-5-carboxamide] showed a Kd of 180 nM.
In the case of CC1CNCCN1c1ncc(C(N)=O)c(Nc2ccc(C3CC3)nc2)n1 (stereo not drawn) [Compound 12, 4-((6-cyclopropylpyridin-3-yl)amino)-2-(2-methylpiperazin-1-yl)pyrimidine-5-carboxamide], the Kd is reported as 800 nM.
With CC1CN(C(=O)OC(C)(C)C)CCN1c1ncc(C(N)=O)c(Nc2ccc(C3CC3)nc2)n1 (stereo not drawn) [Compound 13, Tert-Butyl 4-(S-carbamoyl-4-((6-cyclopropylpyridin-3-yl)amino)pyrimidin-2-yl)-3-methylpiperazine-1-carboxylate] the Kd was 1000 nM.
Work on CNC(=O)c1cnc(N2CCN(C(=O)OC(C)(C)C)CC2C)nc1Nc1ccc(C2CC2)nc1 (stereo not drawn) [Compound 15, Tert-Butyl 4-(4-((6-cyclopropylpyridin-3-yl)amino)-5-(methylcarbamoyl)pyrimidin-2-yl)-3-methylpiperazine-1-carboxylate] yielded a Kd of 42000 nM.
Work on CCOC(=O)C1CCN(c2ncc(C(N)=O)c(Nc3ccccc3S(C)(=O)=O)n2)CC1 [Compound 16, Ethyl 1-(5-carbamoyl-4-((2-(methylsulfonyl)phenyl)amino)pyrimidin-2-yl)piperidine-4-carboxylate] yielded a Kd of 2.6 nM.
In the case of CCOC(=O)C1CCN(c2ncc(C(=O)NC)c(Nc3ccccc3S(C)(=O)=O)n2)CC1 [Compound 17, Ethyl 1-(5-(methylcarbamoyl)-4-((2-(methylsulfonyl)phenyl)amino)pyrimidin-2-yl)piperidine-4-carboxylate], the Kd is reported as 21 nM.
CNC(=O)c1cnc(N2CCN(C(=O)OC(C)(C)C)CC2C)nc1Nc1ccccc1S(C)(=O)=O (stereo not drawn) [Compound 18, Tert-Butyl 3-methyl-4-(5-(methylcarbamoyl)-4-((2-(methylsulfonyl)phenyl)amino)pyrimidin-2-yl)piperazine-1-carboxylate] showed a Kd of 440 nM.
CNC(=O)c1cnc(N2CCC(C(=O)O)CC2)nc1Nc1ccc(C2CC2)nc1 [Compound 19, 1-(4-((6-cyclopropylpyridin-3-yl)amino)-5-(methylcarbamoyl)pyrimidin-2-yl)piperidine-4-carboxylic acid] was tested, and the Kd was 8200 nM.
With CCOC(=O)C1CCN(c2ncc(C(=O)NC)c(Nc3ccc(C4CC4)nc3)n2)CC1 [Compound 20, Ethyl 1-(4-((6-cyclopropylpyridin-3-yl)amino)-5-(methylcarbamoyl)pyrimidin-2-yl)piperidine-4-carboxylate] the Kd was 2500 nM.
Work on CNC(=O)c1cnc(N2CCCN(C(C)=O)CC2)nc1Nc1ccc(C2CC2)nc1 [Compound 21, 2-(4-acetyl-1,4-diazepan-1-yl)-4-((6-cyclopropylpyridin-3-yl)amino)-N-methylpyrimidine-5-carboxamide] yielded a Kd of 14000 nM.
CNC(=O)c1cnc(N2CCCNCC2)nc1Nc1ccc(C2CC2)nc1 [Compound 22, 4-((6-cyclopropylpyridin-3-yl)amino)-2-(1,4-diazepan-1-yl)-N-methylpyrimidine-5-carboxamide Hydrochloride] was tested, and the Kd was 11000 nM.
For CNC(=O)c1cnc(N2CCN(C(C)=O)CC2C)nc1Nc1ccccc1OC (stereo not drawn) [Compound 23, 2-(4-acetyl-2-methylpiperazin-1-yl)-4-((2-methoxyphenyl)amino)-N-methylpyrimidine-5-carboxamide], the Kd was 1600 nM.
For CNC(=O)c1cnc(N2CCCN(C(C)=O)CC2)nc1Nc1ccccc1OC [Compound 24, 2-(4-acetyl-1,4-diazepan-1-yl)-4-((2-methoxyphenyl)amino)-N-methylpyrimidine-5-carboxamide], the Kd was 4900 nM.
CNC(=O)c1cnc(N2CCNCC2C)nc1Nc1cccc(-c2ncc(F)cn2)c1OC (stereo not drawn) [Compound 25, 4-((3-(5-fluoropyrimidin-2-yl)-2-methoxyphenyl)amino)-N-methyl-2-(2-methylpiperazin-1-yl)pyrimidine-5-carboxamide Hydrochloride] showed a Kd of 180 nM.

Same assay, conditions: footnote a: the two measurements averaged for Cmpd. No. 5; read-out: TYK JH2 (Kd, nM), individual measurements
With CNC(=O)c1cnc(N2CC[C@@H](C(=O)NC)C2)nc1Nc1cccc(-c2ncc(F)cn2)c1OC [Compound 5, (R)-4-((3-(5-fluoropyrimidin-2-yl)-2-methoxyphenyl)amino)-N-methyl-2-(3-(methylcarbamoyl)pyrrolidin-1-yl)pyrimidine-5-carboxamide] the Kd was 0.45 nM and 0.93 nM.
